For one series, the system named is smooth muscle cell. As to conditions: related to G1 to S phase blockage; cited from earlier work.
Series [1] deals with OVCA429 cells. Kind of series: Cell cycle analysis (propidium iodide flow cytometry), OVCA429. The following applies: for S-phase DNA contents / G0/G1 phase DNA: OVCA429, 100 μM; for cell cycle effect: serous type cancer cells. It is filed as cell-based, human. On the procedure:
(§1) For the cell cycle analysis, ovarian cells were plated in 75 cm^2 flasks and treated with 100 μM of ginkgolide A and B; the control was treated with an equal amount of DMSO. After 24 and 48 hours, cells were harvested by trypsin digestion and followed by PBS washing and spun for 5 min at room temperature at 12,000 rpm. Cells were fixed with 70% ethanol (in PBS buffer) by suspending the cell pellet and incubated at room temperature for 5 minutes or at −20° C. for two days. The fixed cells were washed once with PBS and then treated with RNase A (50 ug/ml) at 37° C. for 30-60 min. After a single washing with PBS to remove RNase A, propidium iodide (25 μg/ml in PBS buffer) was added. Cells were subjected to analysis using a FACS Calibur Flow Cytometer (Becton Dickson, San Jose, Calif.). Each experiment was repeated at least three times and the cell cycle profiles and data were analyzed by ModFit LT software (Verity Software House, Inc., Topsham, Me.).
A general note: In flow cytometry, cells or beads pass a laser one at a time.

The test system of a further series is RMUG-S cells. Briefly: Cell cycle analysis, RMUG-S. The format is cell-based, human. As to conditions: after treatment. Here is the method:
as §1

For series [2], the system named is RMUG-L cells. Kind of series: Cell proliferation (MTT) assay, mucinous cancer cells RMUG-L. The format is cell-based, human. As to conditions: 10, 50 and 100 μM (extract: equivalent of ginkgolides), 72 h. Here is the method:
(§2) Immortalized normal human ovary epithelial cell (HOSEE6E7) and a serous type ovarian cancer cell lines (OVCA433) previously established in our laboratory (Tsao, et al., Exp. Cell Res. 218:499-507 (1995); Kim, et al., Jama 287:1671-1679 (2002)) were used in this study. Two mucinous ovarian cancer cell lines (RMUG-S and RMUG-L) were purchased from The Japanese Collection of Research Bioresource (Tokyo, Japan). RMUG-L cells were cultured in MCDB105/M199 medium as above, and RMUG-S cells were cultured in F-12 medium with 10% Fetal Bovine Serum and 1% antibiotic as above. Cells were maintained at 37° C. under 5% CO2 and 95% air in a high humidity chamber. Monolayer cells at 60-80% confluence were enzymatically removed using trypsin/EDTA and plated in 96 well flat-bottomed plates at concentration of 5×10^3 per well for HOSE-E6E7 cells, 1×10^3 per well for OVCA429 and RMUG-L, respectively. Treatments were added 24 hours after plating. Ten mM stock solutions of Ginkgo biloba, quercetin, kaempferol, ginkgolide A, and ginkgolide B, were prepared in DMSO and cells were treated with 10, 50 and 100 μM concentrations of each component. Concentration of standard Ginkgo biloba treatment was calibrated according to the fact that, the standard Ginkgo biloba mixture contains about 4-6% of total active terpene lactons, and the estimated average of the molecular weight of the mixture is about 300. An equal volume of DMSO (less than <1% concentration) was used as control treatment.
(§3) Methods for the cell proliferation and viability assays were adopted from MTT (Mosmann, J. Immunol. Methods 65:55-63 (1983), XTT (Scudiero et al., Cancer Res. 48:4827-4833, (1988)) and MTS (Cory, et al., Cancer Commun. 3: 207-212 (1991)), which developed as WST-1 (Roche Applied Science, Germany). Briefly, the tetrazolium salts are cleaved to formazan by cellular enzymes. An expansion in the number of viable cells results in an increase in the overall activity of mitochondrial dehydrogenases in the sample. This augmentation in enzyme activity leads to an increase in the amount of formazan dye formed, which directly correlates with the number of metabolically active cells in the culture. After 72 hours of treatment, 15 μl of the MTT dye solution was added to each well and the plates were incubated at 37° C. for 4 hours in a humidified chamber. After incubation, 100 μl of the Solubilization/Stop solution was added to each well. One hour after the addition of the solubilization solution, the contents of the wells were mixed and read by the 96-well plate scanning spectrophotometer (μQuant) and quantitative software (KC-junior, Bio-Tek Instruments, Inc.) at an absorbance of 630 nm for quantitative analysis. Data was collected from at least 3 separate experiments, and at least 8 repeats were performed for each individual treatment. The cell proliferation rate was expressed as a percentage of the control, which had been treated with an equivalent volume of DMSO (as 100%).
Logistic regression analysis was used to calculate the exposure odds ratio to estimate the relative risk (RR) for ovarian cancer associated with the use of any or a particular type of herbal remedy. Adjustment variables included age, study center, oral contraceptive (OC) use, parity, and Jewish ethnic background. […]

For series [3], the system named is HOSE-E6E7 cells. Briefly: Cell cycle analysis, HOSE-E6E7. It is filed as cell-based, human. As to conditions: 100 μM, 24 h. On the procedure: as §1
Series [4] concerns RMUG-L cells. Kind of series: Cell cycle analysis, RMUG-L. The format is cell-based, human. The following applies: 48 h. Here is the method:
as §1

For series [5], the system named is HOSE-E6E7 cells. Kind of series: Cell proliferation (MTT) assay, HOSE-E6E7 cells. The format is cell-based, human. As to conditions: 10, 50 and 100 μM (extract: equivalent of ginkgolides), 72 h. On the procedure:
Immortalized normal human ovary epithelial cell (HOSEE6E7) and a serous type ovarian cancer cell lines ([…]) previously established in our laboratory (Tsao, et al., Exp. Cell Res. 218:499-507 (1995); Kim, et al., Jama 287:1671-1679 (2002)) were used in this study. Two mucinous ovarian cancer cell lines (RMUG-S and RMUG-L) were purchased from The Japanese Collection of Research Bioresource (Tokyo, Japan). RMUG-L cells were cultured in MCDB105/M199 medium as above, and RMUG-S cells were cultured in F-12 medium with 10% Fetal Bovine Serum and 1% antibiotic as above. Cells were maintained at 37° C. under 5% CO2 and 95% air in a high humidity chamber. Monolayer cells at 60-80% confluence were enzymatically removed using trypsin/EDTA and plated in 96 well flat-bottomed plates at concentration of 5×10^3 per well for HOSE-E6E7 cells, 1×10^3 per well for OVCA429 and RMUG-L, respectively. Treatments were added 24 hours after plating. […]
as §3, with “After 72 hours of treatment, 15 μl of the MTT dye solution was added to each well and the plates were incubated at 37° C. for 4 hours in a humidified chamber. After incubation, 100 μl of the Solubilization/Stop solution was added to each well.” left out, “Data was collected from at least 3 separate experiments, and at least 8 repeats were performed for each individual treatment.” left out, “100%). […]” for “100%).”

The conditions of series [6]: 10 young healthy volunteers; single oral dose of 80 mg Ginkgo biloba (EGb 761 formula); cited from earlier work.
The subject of series [7] is OVCA429 cells. Briefly: Cell proliferation (MTT) assay, serous cancer cells OVCA429. The format is cell-based, human. The following applies: for cell proliferation compared to the control treatments: p<0.0001; for inhibitory pattern in ovarian cancer cells (discussion): cell line not given. Here is the method: as §2, §3
Logistic regression analysis was used to calculate the exposure odds ratio to estimate the relative risk (RR) for ovarian cancer associated with the use of any or a particular type of herbal remedy. Adjustment variables included age, study center, oral contraceptive (OC) use, parity, and Jewish ethnic background. Additionally, we adjusted individually for categories of consumption of vitamin A, carotene, tomatoes and tomato sauce and juice, and raw carrots based upon previous work showing the importance of these foods and vitamins on ovarian cancer risk in our data (Cramer, et al., Int. J. Cancer 94:128-134 (2001)). For the data from the cell proliferation assay, linear regression models were applied to analyze mean OD values from the MTT assays across the different concentration treatments, adjusted for individual experiments. We used a partial F test to determine whether mean OD levels varied across the four concentrations (control, 10, 50, 100 μM). […]

[8] abbreviates: 48 h, control 43% (ginkgolide B), 36.5% (ginkgolide A).
The mark [9] stands for this setting: 48 h, control 47.9% (ginkgolide B), 50.7% (ginkgolide A).

Data on 4 compounds can be found in US20090099102A1, “Ginkgolides in the Treatment and Prevention of Ovarian Cancer” (priority 2005, published 2009).

Structures are written as SMILES. “Also recorded” adds a separate entry of the source.

In the case of `CC1C(=O)OC2C(O)C34C5CC(C(C)(C)C)C36C(OC(=O)C6O)OC4(C(=O)O5)C12O` (stereo not shown) [ginkgolide B], the “inhibition of smooth muscle cell proliferation” value with smooth muscle cell is on record as “inhibit smooth muscle cell proliferation in a concentration dependent manner”. In addition, the “S-phase DNA contents” value in the series on OVCA429 cells [1] (24 h, control 43%) was determined as 35.8%; in the series on OVCA429 cells [1] (setting [8]), 24%. In addition, the “G0/G1 phase DNA” value in the series on OVCA429 cells [1] (24 h, control 47.9%) is 51.5%; in the series with OVCA429 cells [1] (setting [9]), 65.1%; in the series on RMUG-L cells [4] (control 57%) it was 44%. Besides, the “cell cycle effect” value with OVCA429 cells [1] was “cell cycle blockage at G0/G1 to S phase checking point”. Besides, in the series on RMUG-S cells, the “changes in G0/G1, S-phase and M-phase DNA distribution” value is on record as “no observed changes”. Further, the “effect on cell proliferation (words)” value in the series with RMUG-L cells [2] was “little effect; also recorded: no effect”; in the series with HOSE-E6E7 cells [5] it was “little effect”. The “effect on DNA content of G0/G1, S and G2/M phases” value with HOSE-E6E7 cells [3] is “neither ginkgolide A nor ginkgolide B (100 μM) showed a significant effect”. In the series with RMUG-L cells [4] (control 28.7%), the “S-phase DNA” value was 40.9%. In series [6], the average concentration measured was 4 ng/mL. In addition, the “cell proliferation compared to the control treatments” value in the series with OVCA429 cells [7] (OVCA429, 10, 50 and 100 μM, 72 h) is on record as “about 60%”. Also, the “inhibitory pattern in ovarian cancer cells (discussion)” value (shortened to “inhibitory pattern”) in the series with OVCA429 cells [7] is recorded as “significant inhibitory pattern”.
Regarding `O=c1c(O)c(-c2ccc(O)c(O)c2)oc2cc(O)cc(O)c12` [quercetin, reference compound], the “effect on cell proliferation (words)” value with RMUG-L cells [2] and in the series with HOSE-E6E7 cells [5] was “little effect” each time. In addition, in the series with OVCA429 cells [7] (OVCA429, 50 and 100 μM), the “effect on cell proliferation, exception to 'little effect'” value is “OVCA429 with 50 and 100 μM quercetin”. Moreover, the “inhibitory pattern” value in the series on OVCA429 cells [7] is on record as “significant inhibitory pattern”.
For `O=c1c(O)c(-c2ccc(O)cc2)oc2cc(O)cc(O)c12` [kaempferol, reference compound], the “effect on cell proliferation (words)” value with RMUG-L cells [2] was “little effect”; in the series on OVCA429 cells [7] (OVCA429, 10, 50 and 100 μM (extract: equivalent of ginkgolides), 72 h), “little effect”.
For the compound `C[C@@H]1C(=O)O[C@H]2C[C@@]34[C@H]5C[C@@H](C(C)(C)C)[C@]36[C@@H](OC(=O)[C@@H]6O)O[C@@]4(C(=O)O5)[C@]21O` [ginkgolide A], in the series with OVCA429 cells [1] (setting [8]), the “S-phase DNA contents” value was 10.3%. In the series with OVCA429 cells [1] (setting [9]), the “G0/G1 phase DNA” value is listed as 86.1%. Further, the “cell cycle effect” value in the series with OVCA429 cells [1] is listed as “cell cycle blockage at G0/G1 to S phase checking point”. Further, the “effect on cell proliferation (words)” value in the series on RMUG-L cells [2] is recorded as “no effect”; with RMUG-L cells [2] (listed as Ginkgolide A), “little effect”; in the series on HOSE-E6E7 cells [5], “little effect”. In the series with HOSE-E6E7 cells [3], the “effect on DNA content of G0/G1, S and G2/M phases” value was “neither ginkgolide A nor ginkgolide B (100 μM) showed a significant effect”. Also, the average concentration measured in series [6] is 15 ng/mL. For the same compound, the “cell proliferation compared to the control treatments” value with OVCA429 cells [7] (OVCA429, 50 and 100 μM, 72 h) is “about 60%”. The “inhibitory pattern” value in the series on OVCA429 cells [7] is recorded as “significant inhibitory pattern”.
